Each structure is given as a SMILES string. Like-named read-outs stand apart in the source and are kept apart here. Some results are limits rather than exact numbers.

In general, melting point refers to the temperature, or range, at which the solid turns liquid.

Data set [1] addresses T1, Muscarine M4 (GPCR-A-MA-ACH M4) (Homo sapiens, UniProt P08173).
T1 construct: expressed in transfected cells; host or cells: CHO cells
T1 sequence (P08173 1-479): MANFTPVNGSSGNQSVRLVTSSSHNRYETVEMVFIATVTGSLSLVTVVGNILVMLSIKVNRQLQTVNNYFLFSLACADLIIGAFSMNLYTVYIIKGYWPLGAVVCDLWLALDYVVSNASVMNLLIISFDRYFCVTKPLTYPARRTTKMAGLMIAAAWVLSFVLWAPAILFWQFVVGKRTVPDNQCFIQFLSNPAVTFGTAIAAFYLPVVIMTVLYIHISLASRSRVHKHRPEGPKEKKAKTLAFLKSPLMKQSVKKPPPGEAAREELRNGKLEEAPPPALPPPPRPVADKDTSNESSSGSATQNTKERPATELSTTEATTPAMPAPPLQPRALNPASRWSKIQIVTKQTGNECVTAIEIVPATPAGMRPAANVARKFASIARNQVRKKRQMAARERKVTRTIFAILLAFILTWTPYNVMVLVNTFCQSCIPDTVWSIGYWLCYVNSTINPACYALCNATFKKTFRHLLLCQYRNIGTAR
In words: Muscarine M4 cell-based functional assay (CHO cells, Ca2+ - Aequorin luminescence). The essentials: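 CHO cells expressing human M4 were exposed to compound, with Ca2+ response read by aequorin luminescence. Compounds were first tested at 1 μM, then at 10-fold lower concentrations if active; stimulation or inhibition was relative to the reference agonist. EC50/IC50 came from Hill-equation fits.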

The target of data set [2] is T2, Muscarine M1 (GPCR-A-MA-ACH M1) (Homo sapiens, UniProt P11229).
T2 construct: expressed in transfected cells; host or cells: CHO cells
T2 sequence (P11229 1-460): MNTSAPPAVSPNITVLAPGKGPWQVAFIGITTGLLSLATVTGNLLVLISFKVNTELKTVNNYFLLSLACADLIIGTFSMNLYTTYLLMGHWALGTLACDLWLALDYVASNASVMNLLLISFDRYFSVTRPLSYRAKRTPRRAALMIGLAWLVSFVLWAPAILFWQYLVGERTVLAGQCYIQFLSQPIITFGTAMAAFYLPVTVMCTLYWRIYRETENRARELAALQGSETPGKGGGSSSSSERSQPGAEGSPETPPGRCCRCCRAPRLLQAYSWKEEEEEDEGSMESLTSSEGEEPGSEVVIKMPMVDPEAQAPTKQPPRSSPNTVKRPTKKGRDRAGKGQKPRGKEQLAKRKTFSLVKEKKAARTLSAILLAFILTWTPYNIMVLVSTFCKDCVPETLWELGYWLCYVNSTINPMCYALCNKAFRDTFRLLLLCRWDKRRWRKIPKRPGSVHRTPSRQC
In words: Muscarine M1 receptor binding, 3H-Pirenzepine. Particulars: human M1, CHO cells, ligand 2 nM, 60 min/22° C.; for Ki: read-out: RB Musc. M1 3H-Pirenzepine pKi (converted). Put shortly: (§1)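 Human M1 ([3H]-pirenzepine), M3, and M4 ([3H]-4DAMP or [3H]-oxotremorine) receptor preparations incubated with radioligand and compound, first at 10 μM, then at 10-fold lower concentrations if inhibition exceeded 40%. Bound ligand separated by glass-fibre filtration and counted by scintillation. IC50 from Hill fit, converted to Ki via Cheng-Prusoff, reported as pKi.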

For data set [3], the target named is T1, Muscarine M4 (GPCR-A-MA-ACH M4). In words: Muscarine M4 receptor binding, 3H-Oxotremorine. The essentials: as §1
For data set [4] the target is unchanged. The data set is described as follows: Muscarine M4 receptor binding, 3H-4DAMP. The settings on record: human M4, CHO cells, ligand 0.2 nM, 60 min/22° C.; for Ki: read-out: RB Musc. M4 3H-DAMP pKi (converted). The essentials:
as §1

Data set [5] deals with T3, Muscarine M2 (GPCR-A-MA-ACH M2) (Cavia porcellus, UniProt H0VRN8).
T3 construct: from tissue; host or cells: guinea pig left atrium (electrically paced)
T3 sequence (H0VRN8 1-466): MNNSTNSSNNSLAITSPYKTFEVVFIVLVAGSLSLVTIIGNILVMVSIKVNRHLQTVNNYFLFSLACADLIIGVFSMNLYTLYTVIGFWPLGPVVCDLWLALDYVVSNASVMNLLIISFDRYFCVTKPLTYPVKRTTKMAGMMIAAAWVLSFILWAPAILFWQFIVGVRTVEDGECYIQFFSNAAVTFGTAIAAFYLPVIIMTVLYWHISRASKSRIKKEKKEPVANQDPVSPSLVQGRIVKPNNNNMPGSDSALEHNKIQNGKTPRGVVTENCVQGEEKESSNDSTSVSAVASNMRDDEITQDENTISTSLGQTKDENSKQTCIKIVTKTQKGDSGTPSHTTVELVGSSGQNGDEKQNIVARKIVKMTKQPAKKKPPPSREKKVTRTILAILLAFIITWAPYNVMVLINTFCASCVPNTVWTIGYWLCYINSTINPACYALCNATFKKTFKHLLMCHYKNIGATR
The data set is described as follows: Muscarine M2 functional assay, isolated organ (left atrium, electrically paced), agonist and antagonist mode. Details: species or system Guinea Pig. The settings on record: for EC50: read-out: Cell funct. Musc. M2 Agonism pEC50 (converted).

The target of data set [6] is T2, Muscarine M1 (GPCR-A-MA-ACH M1). The data set is described as follows: Muscarine M1 cell-based functional assay (CHO cells, Ca2+ - FLIPR Fluorimetry). The settings on record: for EC50: read-out: Cell funct. Musc. M1 Agonism pEC50 (converted).
The target in data set [7] is T4, Muscarine M3 (GPCR-A-MA-ACH M3) (Cavia porcellus, UniProt H0W1Z3).
T4 construct: from tissue; host or cells: guinea pig ileum
The data set is described as follows: Muscarine M3 functional assay, isolated organ (ileum), agonist and antagonist mode. Further details: species or system Guinea Pig. Particulars: for EC50: read-out: Cell funct. Musc. M3 Agonism pEC50 (converted).

Data set [8] concerns the target T5, Muscarine M2 (GPCR-A-MA-ACH M2) (Homo sapiens, UniProt P08172).
T5 construct: expressed in transfected cells; host or cells: CHO cells
T5 sequence (P08172 1-466): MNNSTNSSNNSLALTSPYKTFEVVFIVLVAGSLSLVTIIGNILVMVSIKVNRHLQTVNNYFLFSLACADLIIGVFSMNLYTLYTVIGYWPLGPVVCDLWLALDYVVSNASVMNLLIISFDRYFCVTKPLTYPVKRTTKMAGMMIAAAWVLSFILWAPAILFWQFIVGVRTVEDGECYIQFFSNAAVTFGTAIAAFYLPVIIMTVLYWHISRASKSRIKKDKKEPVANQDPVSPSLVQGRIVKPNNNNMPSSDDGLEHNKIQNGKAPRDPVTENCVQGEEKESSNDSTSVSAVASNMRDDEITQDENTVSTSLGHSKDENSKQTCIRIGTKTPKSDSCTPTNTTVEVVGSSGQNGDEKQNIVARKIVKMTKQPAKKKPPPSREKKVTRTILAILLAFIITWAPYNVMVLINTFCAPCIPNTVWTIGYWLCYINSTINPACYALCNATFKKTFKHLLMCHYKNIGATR
The data set is described as follows: Muscarine M2 receptor binding.

Data set [9] deals with T6, Muscarine M3 (GPCR-A-MA-ACH M3) (Homo sapiens, UniProt P20309).
T6 construct: expressed in transfected cells; host or cells: CHO cells
In words: Muscarine M3 receptor binding.

[10] abbreviates: human M4, CHO cells, agonist mode, reference agonist oxotremorine, read-out: Cell funct. Musc. M4 Agonism pEC50 (converted).
[11] abbreviates: human M4, CHO cells, receptor binding, ligand 6 nM, 30 min/25° C., read-out: RB Musc. M4 3H-Oxotremorine pKi (converted).
[12] abbreviates: read-out: Cell funct. Musc. M2 Antagonism pA2 (converted).
Setting [13] is: human M1, CHO cells, agonist mode, reference agonist acetylcholine.
The mark [14] stands for this setting: human M2, CHO cells, receptor binding.
The mark [15] stands for this setting: human M3, CHO cells, receptor binding.

T4 sequence (H0W1Z3 1-590): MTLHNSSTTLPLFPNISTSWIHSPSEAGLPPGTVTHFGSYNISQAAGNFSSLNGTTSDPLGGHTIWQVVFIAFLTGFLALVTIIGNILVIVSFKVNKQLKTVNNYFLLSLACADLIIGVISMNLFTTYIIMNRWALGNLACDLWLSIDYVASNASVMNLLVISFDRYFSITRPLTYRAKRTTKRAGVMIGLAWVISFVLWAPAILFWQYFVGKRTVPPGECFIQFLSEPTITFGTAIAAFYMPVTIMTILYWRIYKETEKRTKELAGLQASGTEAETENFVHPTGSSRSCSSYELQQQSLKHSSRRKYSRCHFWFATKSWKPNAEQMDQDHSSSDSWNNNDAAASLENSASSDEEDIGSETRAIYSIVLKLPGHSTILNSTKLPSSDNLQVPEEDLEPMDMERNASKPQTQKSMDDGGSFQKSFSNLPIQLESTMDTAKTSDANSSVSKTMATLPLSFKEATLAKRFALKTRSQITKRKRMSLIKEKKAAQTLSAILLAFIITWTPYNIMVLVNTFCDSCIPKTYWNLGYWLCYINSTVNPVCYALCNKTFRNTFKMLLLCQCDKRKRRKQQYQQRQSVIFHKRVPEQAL
T6 sequence (P20309 whole entry): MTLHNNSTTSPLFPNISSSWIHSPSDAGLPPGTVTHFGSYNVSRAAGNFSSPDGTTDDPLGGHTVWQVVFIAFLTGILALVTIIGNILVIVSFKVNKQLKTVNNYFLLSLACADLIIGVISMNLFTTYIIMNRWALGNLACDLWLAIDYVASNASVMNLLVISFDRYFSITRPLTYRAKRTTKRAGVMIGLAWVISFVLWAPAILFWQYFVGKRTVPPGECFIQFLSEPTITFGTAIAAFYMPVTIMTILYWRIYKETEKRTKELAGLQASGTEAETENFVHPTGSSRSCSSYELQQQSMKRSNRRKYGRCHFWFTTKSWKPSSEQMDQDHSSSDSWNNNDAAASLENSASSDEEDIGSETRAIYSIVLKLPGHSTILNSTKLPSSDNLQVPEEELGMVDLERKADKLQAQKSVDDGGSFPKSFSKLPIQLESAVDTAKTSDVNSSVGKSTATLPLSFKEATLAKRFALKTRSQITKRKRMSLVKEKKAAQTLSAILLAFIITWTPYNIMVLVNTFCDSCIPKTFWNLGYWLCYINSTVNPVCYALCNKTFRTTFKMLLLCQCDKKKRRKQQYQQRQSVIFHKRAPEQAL

Regarding `CSc1c[nH]nc1C1=CCCN(C)C1` [Compound 22A, 3-(4-Methylsulfanyl-1H-pyrazol-3-yl)-1,2,5,6-tetrahydro-1-methylpyridine], the melting point amounted to 131.5 °C. Further, the EC50 in data set [1] (setting [10]) was more than 10000 nM. In [2], the Ki is 1580 nM. For the same compound, in data set [3] (setting [11]), the Ki was 251 nM. Moreover, the Ki in data set [4] is 398 nM.

`CCSc1c[nH]nc1C1=CCCN(C)C1` [Compound 22D, 3-(4-Ethylsulfanyl-1H-pyrazol-3-yl)-1,2,5,6-tetrahydro-1-methylpyridine] came in with a melting point of 95 to 97 °C. Further, in data set [1] (setting [10]), the EC50 was more than 10000 nM. Also, the Ki in data set [2] is 1580 nM. For the same compound, the Ki in data set [3] (setting [11]) is 316 nM. The Ki in data set [4] was 398 nM.

Regarding `CC(C)CCSc1c[nH]nc1C1=CCCN(C)C1` [Compound 22S, 3-[4-(3-methyl-butylsulfanyl)-1H-pyrazol-3-yl]-1,2,5,6-tetrahydro-1-methylpyridine], the EC50 in data set [5] is more than 1000 nM; in [1] (setting [10]) it was more than 10000 nM; in [6] (setting [13]), 398 nM; in data set [7], more than 1000 nM. Also, the Kb in data set [5] (setting [12]) is more than 1000 nM; in data set [7] it was 100 nM. Moreover, the Ki in [2] was 126 nM; in data set [3] (setting [11]), 158 nM; in data set [4], 50.1 nM; in data set [8] (setting [14]), 2000 nM; in data set [9] (setting [15]), 50.1 nM.

For `CCCCCCOc1c[nH]nc1C1=CCCN(C)C1` [Compound 33B, 3-(4-Hexyloxy-1H-pyrazol-3-yl]-1,2,5,6-tetrahydro-1-methylpyridine], the EC50 was more than 1000 nM in data set [5], 501 nM in data set [1] (setting [10]), 100 nM in [6] (setting [13]) and more than 1000 nM in [7]. Further, the Kb in [5] (setting [12]) and in data set [7] was more than 1000 nM in each case. Besides, the Ki is 1000 nM in data set [2]; 200 nM in [3] (setting [11]); 316 nM in [4]; 1260 nM in [8] (setting [14]); 398 nM in [9] (setting [15]).

As for `CCCSc1c[nH]nc1C1CN2CCC1CC2` (stereo not drawn) [Compound 49E, 3-(4-Propylsulfanyl-1H-pyrazol-3-yl)-1-azabicyclo[2.2.2]octane], the Kb in [5] and in data set [7] was more than 1000 nM each time. Besides, the EC50 in data set [5] was 794 nM; in [1], 79.4 nM; in [6], 10 nM; in data set [7], more than 1000 nM. The Ki in data set [2] was 316 nM; in data set [3] it was 79.4 nM; in [4], 39.8 nM; in [8] it was 501 nM; in data set [9] it was 126 nM.

For `c1ccc(CCSc2c[nH]nc2C2CN3CCC2CC3)cc1` (stereo not drawn) [Compound 49G, 3-(4-Phenethylsulfanyl-1H-pyrazol-3-yl)-1-azabicyclo[2.2.2]octane], in data set [5], the “Cell funct. Musc. M2 Agonism pEC50” value is on record as less than 6 and the “Cell funct. Musc. M2 Antagonism pA2” value was less than 6. Further, the “Cell funct. Musc. M4 Agonism pEC50” value in data set [1] was 8.0. In data set [6], the “Cell funct. Musc. M1 Agonism pEC50” value amounted to 7.3. The “RB Musc. M1 3H-Pirenzepine pKi” value in data set [2] worked out at 6.2. For the same compound, the “RB Musc. M4 3H-Oxotremorine pKi” value in data set [3] turned out to be 7.6. For the same compound, the “RB Musc. M4 3H-DAMP pKi” value in [4] stood at 7.0. Besides, in data set [7], the “Cell funct. Musc. M3 Agonism pEC50” value is listed as less than 6 and the “Cell funct. Musc. M3 Antagonism pA2” value is on record as less than 6. Also, the “RB Musc M2 methoctramine” value in [8] is 6.1. The “RB Musc M3 4-DAMP” value in data set [9] is 6.5.

As for `CCCOc1c[nH]nc1C1CN2CCC1CC2` (stereo not drawn) [Compound 52B, 3-(4-Propoxy-1H-pyrazol-3-yl)-1-azabicyclo[2.2.2]octane], the Kb is 25.1 nM in data set [5] and more than 1000 nM in [7]. For the same compound, the EC50 is more than 1000 nM in data set [5], 100 nM in data set [1], 7.94 nM in [6] and more than 1000 nM in [7]. Also, the Ki in [2] is 631 nM; in data set [3] it was 63.1 nM; in data set [4], 126 nM; in data set [8], 1260 nM; in [9] it was 316 nM.

With `CCCCCSc1nc[nH]c1C1=CCCN(C)C1` [Compound 76A, 3-(5-Pentylsulfanyl-3H-imidazol-4-yl)-1,2,5,6-tetrahydro-1-methylpyridine], the EC50 was more than 1000 nM in data set [5], 7940 nM in data set [1] (setting [10]), 126 nM in [6] (setting [13]) and more than 1000 nM in [7]. Also, the Kb in data set [5] (setting [12]) and in data set [7] was more than 1000 nM each time. For the same compound, the Ki in [2] is 2510 nM; in data set [3] (setting [11]), 631 nM; in data set [4], 316 nM; in data set [8] (setting [14]) it was 5010 nM; in [9] (setting [15]), 794 nM.

In the case of `CCCCCCSc1nc[nH]c1C1=CCCN(C)C1` [Compound 76B, 3-(5-Hexylsulfanyl-3H-imidazol-4-yl)-1,2,5,6-tetrahydro-1-methylpyridine], the EC50 in data set [5] was more than 1000 nM; in [1] (setting [10]), 1000 nM; in data set [6] (setting [13]) it was 79.4 nM; in [7], more than 1000 nM. Besides, the Kb in data set [5] (setting [12]) and in [7] was more than 1000 nM throughout. The Ki is 3980 nM in data set [2]; 1000 nM in data set [3] (setting [11]); 501 nM in [4]; 6310 nM in [8] (setting [14]); 2510 nM in data set [9] (setting [15]).

Values taken from patent US8735388B2, “Heterocyclic compounds with affinity to muscarinic receptors” (Abbvie B. V. A., priority 2007, dated 2014).
